In brackets after ≈: the same amount, converted by molar mass.
What was measured:
[1] = system: Trichophyton rubrum KD-1130; assay: Antifungal activity evaluation test: minimum inhibitory concentration (MIC), broth dilution by reference to CLSI M38-A2; type: cell-based; conditions: KD1130, read-out: MIC (T. rubrum)
Outline: (§1)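 MIC read visually as lowest concentration inhibiting growth by at least 80% relative to control after 4 days at 35° C. Trichophyton strains inoculated at 2×10^3 cells/mL final in MOPS-buffered RPMI 1640 (pH 7.0); compounds as 2-fold DMSO series, CLSI M38-A2 basis.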

[2] = system: Trichophyton mentagrophytes SM-110; assay: as above; type: cell-based; conditions: SM110, read-out: MIC (T. menta.)
Outline: as §1

SMILES | MIC [1] [µg/mL] | MIC [2] [µg/mL]
Fc1ccc(-c2cccnc2Oc2ccc(C(F)(F)F)nc2)c(F)c1 [I-8, 3-(2,4-difluorophenyl)-2-{[6-(trifluoromethyl)pyridin-3-yl]oxy}pyridine] | ≤ 0.1 | ≤ 0.1
CCCN(C)c1ncc(Oc2ncccc2-c2cccnc2OC)cn1 [I-183] | ≤ 0.1 | ≤ 0.1
COc1ncccc1-c1cccnc1Oc1ccc(C(F)(F)F)nc1 [I-26, 2-methoxy-2′-{[6-(trifluoromethyl)pyridin-3-yl]oxy}-3,3′-bipyridine] | ≤ 0.1 | ≤ 0.1
CCCN(C)c1ncc(Oc2ncccc2-c2cccc3c2OCC3)cn1 [I-449] | ≤ 0.1 | ≤ 0.1
COCC(F)(F)c1ccc(Oc2ncccc2-c2cccc3c2OCC3)cn1 [I-166, 2-{[6-(1,1-difluoro-2-methoxyethyl)pyridin-3-yl]oxy}-3-(2,3-dihydrobenzofuran-7-yl)pyridine] | ≤ 0.1 | ≤ 0.1
COc1ccnc(OC)c1-c1cccnc1Oc1ccc(C(F)(F)F)cc1 [I-203, 2,4-dimethoxy-2′-[4-(trifluoromethyl)phenoxy]-3,3′-bipyridine] | ≤ 0.1 | ≤ 0.1
CC(F)(F)c1ccc(Oc2ncncc2-c2cccc3ccnn23)cc1 [I-333, 7-{4-[4-(1,1-difluoroethyl)phenoxy]pyrimidin-5-yl}pyrazolo[1,5-a]pyridine] | ≤ 0.1 | ≤ 0.1
COCC(F)(F)c1ccc(Oc2ncccc2-c2ccc(F)cc2OC)cn1 [I-161, 2-{[6-(1,1-difluoro-2-methoxyethyl)pyridin-3-yl]oxy}-3-(4-fluoro-2-methoxyphenyl)pyridine] | ≤ 0.1 | ≤ 0.1
FC(F)(F)c1ccc(Oc2ncccc2-c2cccc3ncccc23)cn1 [I-36, 5-(2-{[6-(trifluoromethyl)pyridin-3-yl]oxy}pyridin-3-yl)quinoline] | 0.2 to 0.78 (≈ 0.544 to 2.12 µM) | ≤ 0.1
FC(F)(F)c1ccc(Oc2ncccc2-c2ccnc3cccnc23)cc1 [I-226, 4-{2-[4-(trifluoromethyl)phenoxy]pyridin-3-yl}-1,5-naphthyridine] | ≤ 0.1 | ≤ 0.1
COCC(F)(F)c1ccc(Oc2ncccc2-c2cc(OC)ccc2F)cn1 [I-458] | ≤ 0.1 | ≤ 0.1

Further lines, results first:

MIC [1] [µg/mL] | MIC [2] [µg/mL] | SMILES
≤ 0.1 | ≤ 0.1 | CCc1cc(Oc2ncccc2-c2cnccc2OC)ccc1C(F)F [I-296, 2-[4-(difluoromethyl)-3-ethylphenoxy]-4′-methoxy-3,3′-bipyridine]
0.2 to 0.78 (≈ 0.543 to 2.12 µM) | 0.2 to 0.78 (≈ 0.543 to 2.12 µM) | FC(F)(F)c1ccc(Oc2ncccc2-c2cccc3nccnc23)cn1 [I-37, 5-(2-{[6-(trifluoromethyl)pyridin-3-yl]oxy}pyridin-3-yl)quinoxaline]
0.2 to 0.78 (≈ 0.573 to 2.23 µM) | 0.2 to 0.78 (≈ 0.573 to 2.23 µM) | COc1c(-c2cccnc2Oc2ccc(C(F)(F)F)cc2)cnn1C [I-223, 3-(5-methoxy-1-methyl-1H-pyrazol-4-yl)-2-[4-(trifluoromethyl)phenoxy]pyridine]
0.2 to 0.78 (≈ 0.547 to 2.13 µM) | 0.2 to 0.78 (≈ 0.547 to 2.13 µM) | CC(F)(F)c1ccc(Oc2ncccc2-c2cncc(F)c2Cl)cn1 [I-97, 4′-chloro-2-{[6-(1,1-difluoroethyl)pyridin-3-yl]oxy}-5′-fluoro-3,3′-bipyridine]
≤ 0.1 | ≤ 0.1 | Cc1ccncc1-c1cccnc1Oc1ccc(I)cc1 [I-426]
≤ 0.1 | ≤ 0.1 | COc1ccncc1-c1cccnc1Oc1ccc(C(=O)OC(C)C)cc1 [I-418]
≤ 0.1 | ≤ 0.1 | COc1ccccc1-c1cccnc1Oc1ccc2c(c1)CCC2 [I-345, 2-[(2,3-dihydro-1H-inden-5-yl)oxy]-3-(2-methoxyphenyl)pyridine]
≤ 0.1 | ≤ 0.1 | COc1ccccc1-c1cccnc1Oc1ccc(OCCc2ccccc2)nc1 [I-173, 3-(2-methoxyphenyl)-2-[(6-phenethoxypyridin-3-yl)oxy]pyridine]
≤ 0.1 | ≤ 0.1 | CCc1ccc(Oc2ncccc2-c2cnccc2OC)c(F)c1 [I-394, 2-(4-ethyl-2-fluorophenoxy)-4′-methoxy-3,3′-bipyridine]
≤ 0.1 | ≤ 0.1 | COc1ccccc1-c1nccnc1Oc1ccc2c(c1)CCCC2 [I-315]

Source: patent publication US10647675B2 (priority 2015, dated 2020)
